Experimental data taken from patent US4104267A, “Somatostatin analogs” (American Home Products Corporation, priority 1977, dated 1978).
Where a name gives a salt, the structure may show the parent alone. Residues, ends and D or L forms follow the SMILES beside them.

Tests used:
Format in all cases: in vivo
[1] = system: glucagon; assay: Suppression of Growth Hormone, Glucagon and Insulin (arginine-stimulated, nembutal-anesthetized rats): glucagon; conditions: albino male rats, arginine stimulation, blood 15 min after compound
Description: (§1) Albino male rats are arranged in the three groups (nine rats/group) and injected i.p. with nembutal at 50 mg/kg. Fifteen minutes after the nembutal injection they are injected s.c. according to group with (a) test compound, typically 10-2000 μg/kg.; )b) SRIF 200 μg/kg.; or (c) physiological saline. Ten minutes. later 0.5 ml. of arginine (300 mg/ml. pH 7.2) is injected into the heart. The rats are decapitated five minutes after receiving the arginine, and the blood is collected into Trasylol-EDTA. Appropriate aliquots are then assayed for growth hormone, glucagon and insulin. […] Comparisons between control and experimental values are statistically evaluated by the analysis of variants method and statistical significance (p) at 0.05 or lower is used as the index of activity.

[2] = system: growth hormone (GH); assay: Suppression of Growth Hormone (duration of activity, 2 and 4 hours after sc injection); conditions: 1 mg/kg sc, nonfasted male rats, paired saline control; for plasma growth hormone (GH) concentration, 2 Hr.: 2 hours after injection; for plasma growth hormone (GH) concentration, 4 Hr.: 4 hours after injection
Description: A subcutaneous (sc) injection of peptide solubilized or suspended in physiological saline, is given to Charles River (CD® nonfasted male rats. Matched saline control solution sc injected rats serve as control animals so that every experimental rat is paired with a control rat. The rats are kept in separate cages and 20 minutes before the end of the test time period they are given an intraperitoneal (i.p.) injection of Nembutal® at a dose of 50 mg/kg. Blood samples are obtained by cardiac puncture and the plasma separated for the radioimmunoassay of growth hormone (GH) concentration (ng/ml.). Time periods after injection of 2 and 4 hours are used to test the duration of the activity of the peptide to suppress circulating peripheral GH levels. Comparisons between control and experimental GH values at each time are evaluated by the Student "t" test and statistical significance (p) at the 0.05 level or lower is used as the index of activity.

[3] = system: insulin; assay: Suppression of Growth Hormone, Glucagon and Insulin (arginine-stimulated, nembutal-anesthetized rats): insulin; conditions: albino male rats, arginine stimulation, blood 15 min after compound
Description: as §1

[4] = system: growth hormone; assay: Suppression of Growth Hormone, Glucagon and Insulin (arginine-stimulated, nembutal-anesthetized rats): growth hormone; conditions: for GH: albino male rats, arginine stimulation, blood 15 min after compound
Description: as §1

## C[C@@H](O)[C@@H]1NC(=O)[C@H](CCCCN)NC(=O)[C@@H](Cc2c[nH]c3ccccc23)NC(=O)[C@H](Cc2ccccc2)NC(=O)[C@H](Cc2ccccc2)NC(=O)[C@H](Cc2c[nH]cn2)NC(=O)[C@H](Cc2c[nH]cn2)NC(=O)[C@@H](N)CSSC[C@H](C(=O)O)NC(=O)[C@H](CO)NC(=O)[C@H]([C@@H](C)O)NC(=O)[C@H](Cc2ccccc2)NC1=O [Compound II, L-Cysteinyl-L-Histidyl-L-Histidyl-L-Phenylalanyl-L-Phenylalanyl-D-Tryptophyl-L-Lysyl-L-Threonyl-L-Phenylalanyl-L-Threonyl-L-Seryl-D-Cysteine Cyclic (1-12) Disulfide, Diacetate Salt] (HELM PEPTIDE1{C.H.H.F.F.[dW].K.T.F.T.S.[dC]}$PEPTIDE1,PEPTIDE1,1:R3-12:R3$$$V2.0)
[1]; 10 μg/kg s.c.
  Glucagon: 70 ± 7 pg/mL
[1]; 100 μg/kg s.c.
  Glucagon: 5 ± 2 pg/mL
[2]
  plasma growth hormone (GH) concentration, 2 Hr.: 20 ± 3 ng/mL
  plasma growth hormone (GH) concentration, 4 Hr.: 107 ± 34 ng/mL
[3]; 10 μg/kg s.c.
  Insulin: 318 ± 54 μU/ml.
[3]; 100 μg/kg s.c.
  Insulin: 165 ± 21 μU/ml.
[4]; 10 μg/kg s.c.
  GH: 110 ± 22 ng/mL
[4]; 100 μg/kg s.c.
  GH: 64 ± 20 ng/mL
[4]; at low doses, growth hormone, glucagon and insulin
  hormone specificity of suppression: specific for the suppression of glucagon and growth hormone without affecting insulin secretion

## C[C@@H](O)[C@@H]1NC(=O)[C@H](Cc2ccccc2)NC(=O)[C@H]([C@@H](C)O)NC(=O)[C@H](CCCCN)NC(=O)[C@@H](Cc2c[nH]c3ccccc23)NC(=O)[C@H](Cc2ccccc2)NC(=O)[C@H](Cc2ccccc2)NC(=O)[C@H](Cc2c[nH]cn2)NC(=O)[C@H](Cc2c[nH]cn2)NC(=O)[C@@H](N)CSSC[C@@H](C(=O)O)NC(=O)[C@H](CO)NC1=O [Compound I, L-Cysteinyl-L-Histidyl-L-Histidyl-L-Phenylalanyl-L-Phenylalanyl-D-Trptophyl-L-Lysyl-L-Threonyl-L-Phenylalanyl-L-Threonyl-L-Seryl-L-Cysteine Cyclic (1-12) Disulfide] (HELM PEPTIDE1{C.H.H.F.F.[dW].K.T.F.T.S.C}$PEPTIDE1,PEPTIDE1,1:R3-12:R3$$$V2.0)
[1]; 100 μg/kg s.c.
  Glucagon: 20 ± 8 pg/mL
[2]
  plasma growth hormone (GH) concentration, 2 Hr.: 32 ± 6 ng/mL
  plasma growth hormone (GH) concentration, 4 Hr.: 62 ± 13 ng/mL
[3]; 100 μg/kg s.c.
  Insulin: 202 ± 49 μU/ml.
[4]; 100 μg/kg s.c.
  GH: 20 ± 8 ng/mL
